Data published in ChEMBL document CHEMBL5365403, “Synthesis of proposed structure of ledebourin A” (Bioorg Med Chem Lett, 2023).
The source made the active and inactive calls. The rule behind the calls is not given here.

Legend:
HepG2 [1] = assay: Hepatoprotective activity against GA-induced human HepG2 cells assessed as cell viability at 10 uM pre-incubated for 2 hrs followed by GA addition and measured after 22 hrs by MTT assay (Rvb=37% ); format: functional; details: time 24 hrs, read-out: Activity
HepG2 [2] = assay: Hepatoprotective activity against GA-induced human HepG2 cells assessed as reduction in Bax protein expression at 5 to 10 uM; format: functional, cell-based; details: dose 5-10 µM
HepG2 [3] = assay: Cytotoxicity against human HepG2 cells assessed as reduction cell viability at 10 uM after 24 hrs by MTT assay; format: toxicity, cell-based; details: hepg2, 24 h

| SMILES | viability at 10 µM (HepG2 [1]) [%] | Activity (HepG2 [2]) | Activity (HepG2 [3]) |
| --- | --- | --- | --- |
| COc1ccc(C[C@H]2COc3c4c(cc(O)c3C2=O)OC(C)(C)C=C4)cc1 | 51 | Active | Non-Toxic |
| COc1ccc(C[C@H]2COc3cc4c(c(O)c3C2=O)C=CC(C)(C)O4)cc1 | 47 | Active | Non-Toxic |
